Test results reported in ChEMBL document CHEMBL1141622, “Carbonic anhydrase inhibitors: interactions of phenols with the 12 catalytically active mammalian isoforms (CA I-XIV)” (Bioorg Med Chem Lett, 2008).

Key:
[1] = target: Carbonic anhydrase 6 (Homo sapiens) (UniProt P23280)
Description: Inhibition of human recombinant full length carbonic hydrase 6 by stopped-flow assay

[2] = target: Carbonic anhydrase 5A, mitochondrial (Homo sapiens) (UniProt P35218)
Description: Inhibition of human recombinant full length carbonic hydrase 5A by stopped-flow assay

[3] = target: Carbonic anhydrase 13 (Mus musculus) (UniProt Q9D6N1); assay: Inhibition of mouse recombinant full length carbonic hydrase 13 by stopped-flow assay
Sequence of Carbonic anhydrase 13 (Mus musculus) (Q9D6N1 whole entry, looked up): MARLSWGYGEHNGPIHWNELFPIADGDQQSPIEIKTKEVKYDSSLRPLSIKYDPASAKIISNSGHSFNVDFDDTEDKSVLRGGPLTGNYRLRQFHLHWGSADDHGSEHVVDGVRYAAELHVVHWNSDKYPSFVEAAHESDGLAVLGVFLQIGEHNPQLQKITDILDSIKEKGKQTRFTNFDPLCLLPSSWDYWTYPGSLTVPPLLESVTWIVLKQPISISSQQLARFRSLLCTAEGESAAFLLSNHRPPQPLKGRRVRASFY

[4] = target: Carbonic anhydrase 3 (Homo sapiens) (UniProt P07451)
Sequence of Carbonic anhydrase 3 (Homo sapiens) (P07451 whole entry): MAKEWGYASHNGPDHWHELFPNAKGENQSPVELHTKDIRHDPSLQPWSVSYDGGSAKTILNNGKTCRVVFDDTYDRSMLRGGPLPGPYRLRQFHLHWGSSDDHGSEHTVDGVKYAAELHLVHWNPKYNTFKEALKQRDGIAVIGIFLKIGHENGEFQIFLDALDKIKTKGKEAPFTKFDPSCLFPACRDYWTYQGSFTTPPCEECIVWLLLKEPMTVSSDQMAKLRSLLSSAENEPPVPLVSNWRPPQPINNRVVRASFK
Description: Inhibition of human recombinant full length carbonic hydrase 3 by stopped-flow assay

[5] = target: Carbonic anhydrase 9 (Homo sapiens) (UniProt Q16790)
Description: Inhibition of human catalytic domain carbonic hydrase 9 by stopped-flow assay

[6] = target: Carbonic anhydrase 1 (Homo sapiens) (UniProt P00915)
Sequence of Carbonic anhydrase 1 (Homo sapiens) (P00915 2-261 limits assumed): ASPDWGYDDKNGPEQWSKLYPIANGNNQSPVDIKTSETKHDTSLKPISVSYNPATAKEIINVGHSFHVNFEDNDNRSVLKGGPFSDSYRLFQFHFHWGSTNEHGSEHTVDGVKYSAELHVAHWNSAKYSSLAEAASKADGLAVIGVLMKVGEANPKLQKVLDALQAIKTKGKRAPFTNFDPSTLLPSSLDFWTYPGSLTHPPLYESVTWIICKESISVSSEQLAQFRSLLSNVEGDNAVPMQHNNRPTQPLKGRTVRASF
Description: Inhibition of human recombinant full length carbonic hydrase 1 by stopped-flow assay

[7] = target: Carbonic anhydrase 7 (Homo sapiens) (UniProt P43166)
Sequence of Carbonic anhydrase 7 (Homo sapiens) (P43166 whole entry): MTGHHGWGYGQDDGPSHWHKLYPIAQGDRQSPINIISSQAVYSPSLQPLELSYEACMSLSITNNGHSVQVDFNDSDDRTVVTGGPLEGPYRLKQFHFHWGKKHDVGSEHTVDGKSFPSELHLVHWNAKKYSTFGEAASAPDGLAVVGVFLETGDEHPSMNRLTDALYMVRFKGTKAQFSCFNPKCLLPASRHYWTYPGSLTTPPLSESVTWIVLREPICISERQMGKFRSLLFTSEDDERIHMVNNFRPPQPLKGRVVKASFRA
Description: Inhibition of human recombinant full length carbonic hydrase 7 by stopped-flow assay

[8] = target: Carbonic anhydrase 2 (Homo sapiens) (UniProt P00918)
Description: Inhibition of human recombinant full length carbonic hydrase 2 by stopped-flow assay

[9] = target: Carbonic anhydrase 5B, mitochondrial (Homo sapiens) (UniProt Q9Y2D0)
Sequence of Carbonic anhydrase 5B, mitochondrial (Homo sapiens) (Q9Y2D0 whole entry): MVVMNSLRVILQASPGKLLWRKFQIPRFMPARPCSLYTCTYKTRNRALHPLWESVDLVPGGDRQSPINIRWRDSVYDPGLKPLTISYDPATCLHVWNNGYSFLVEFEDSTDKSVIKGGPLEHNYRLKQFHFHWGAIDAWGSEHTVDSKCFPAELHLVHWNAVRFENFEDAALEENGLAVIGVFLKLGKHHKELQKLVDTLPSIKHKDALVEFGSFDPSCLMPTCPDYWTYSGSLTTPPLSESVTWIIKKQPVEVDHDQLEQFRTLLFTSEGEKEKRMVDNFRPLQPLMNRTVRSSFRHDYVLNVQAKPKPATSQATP
Description: Inhibition of human recombinant full length carbonic hydrase 5B by stopped-flow assay

[10] = target: Carbonic anhydrase 12 (Homo sapiens) (UniProt O43570)
Sequence of Carbonic anhydrase 12 (Homo sapiens) (O43570 whole entry): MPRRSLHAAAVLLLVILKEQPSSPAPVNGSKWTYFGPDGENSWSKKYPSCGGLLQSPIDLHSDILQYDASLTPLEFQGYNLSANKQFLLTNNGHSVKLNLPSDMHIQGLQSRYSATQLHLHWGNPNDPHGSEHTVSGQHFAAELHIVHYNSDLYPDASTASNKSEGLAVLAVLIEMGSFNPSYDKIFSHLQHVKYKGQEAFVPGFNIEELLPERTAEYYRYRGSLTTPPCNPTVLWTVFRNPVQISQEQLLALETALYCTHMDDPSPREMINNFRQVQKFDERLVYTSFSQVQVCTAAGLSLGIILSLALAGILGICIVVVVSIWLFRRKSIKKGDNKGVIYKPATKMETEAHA
Description: Inhibition of human catalytic domain carbonic hydrase 12 by stopped-flow assay

[11] = target: Carbonic anhydrase 14 (Homo sapiens) (UniProt Q9ULX7)
Sequence of Carbonic anhydrase 14 (Homo sapiens) (Q9ULX7 whole entry): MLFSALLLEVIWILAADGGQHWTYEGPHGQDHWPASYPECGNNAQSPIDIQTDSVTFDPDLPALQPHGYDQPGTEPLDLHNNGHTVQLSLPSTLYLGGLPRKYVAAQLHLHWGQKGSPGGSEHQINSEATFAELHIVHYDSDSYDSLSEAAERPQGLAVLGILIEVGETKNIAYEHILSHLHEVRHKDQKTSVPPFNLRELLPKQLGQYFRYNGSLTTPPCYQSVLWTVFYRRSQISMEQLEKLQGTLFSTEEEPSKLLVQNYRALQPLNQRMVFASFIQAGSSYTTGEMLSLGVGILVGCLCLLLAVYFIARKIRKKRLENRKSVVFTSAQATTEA
Description: Inhibition of human recombinant full length carbonic hydrase 14 by stopped-flow assay

[12] = target: Carbonic anhydrase 4 (Homo sapiens) (UniProt P22748)
Sequence of Carbonic anhydrase 4 (Homo sapiens) (P22748 whole entry): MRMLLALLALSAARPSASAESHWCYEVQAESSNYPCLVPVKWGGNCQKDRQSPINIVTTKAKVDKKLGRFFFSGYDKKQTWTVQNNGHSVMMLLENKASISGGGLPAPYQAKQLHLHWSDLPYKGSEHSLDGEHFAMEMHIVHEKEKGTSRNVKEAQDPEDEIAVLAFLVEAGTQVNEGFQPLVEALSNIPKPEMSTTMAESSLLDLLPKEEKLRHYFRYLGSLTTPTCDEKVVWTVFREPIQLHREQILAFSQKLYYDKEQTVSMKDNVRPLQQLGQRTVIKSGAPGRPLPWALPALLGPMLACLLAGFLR
Description: Inhibition of human recombinant full length carbonic hydrase 4 by stopped-flow assay

Sequence of Carbonic anhydrase 5A, mitochondrial (Homo sapiens) (P35218 whole entry): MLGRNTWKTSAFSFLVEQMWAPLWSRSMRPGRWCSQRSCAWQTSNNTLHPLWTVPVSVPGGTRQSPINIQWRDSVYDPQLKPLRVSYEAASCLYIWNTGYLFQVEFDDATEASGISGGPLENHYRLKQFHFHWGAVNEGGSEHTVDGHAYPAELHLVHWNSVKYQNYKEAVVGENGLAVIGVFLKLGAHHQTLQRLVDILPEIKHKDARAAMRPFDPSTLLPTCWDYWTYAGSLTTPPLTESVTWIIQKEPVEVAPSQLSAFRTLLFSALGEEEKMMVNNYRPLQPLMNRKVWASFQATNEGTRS
Sequence of Carbonic anhydrase 6 (Homo sapiens) (P23280 whole entry): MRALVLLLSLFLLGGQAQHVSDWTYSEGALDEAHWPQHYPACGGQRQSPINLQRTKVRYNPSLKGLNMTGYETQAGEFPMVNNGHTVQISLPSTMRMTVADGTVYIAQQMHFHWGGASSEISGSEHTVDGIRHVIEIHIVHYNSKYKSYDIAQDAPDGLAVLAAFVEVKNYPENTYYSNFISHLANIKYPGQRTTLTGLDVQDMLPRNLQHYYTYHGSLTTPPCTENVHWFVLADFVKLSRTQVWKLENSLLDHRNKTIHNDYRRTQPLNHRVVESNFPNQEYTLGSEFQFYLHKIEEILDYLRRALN

| SMILES | Ki [1] [µM] | Ki [2] [µM] | Kinact [3] [µM] | Ki [4] [µM] | Kinact [5] [µM] | Ki [6] [µM] | Kinact [7] [µM] | Ki [8] [µM] | Ki [9] [µM] | Kinact [10] [µM] | Kinact [11] [µM] | Ki [12] [µM] |
| --- | --- | --- | --- | --- | --- | --- | --- | --- | --- | --- | --- | --- |
| CC(=O)/N=c1/sc(S(N)(=O)=O)nn1C | 0.01 | 0.065 | 0.019 | 710 | – | – | – | – | – | – | – | – |
| Oc1cc(F)cc(F)c1 | 82.6 | 65 | 84.2 | 0.71 | 9.4 | 38.8 | 163 | 33.9 | 98.4 | 70.2 | 10.6 | 10.7 |
| Oc1c(I)cc(Cl)c2cccnc12 | 5.3 | 8.3 | 4.9 | 3.3 | 5.6 | 6.6 | 16 | 6.5 | – | 8.1 | 5 | 5.4 |
